Results as given in ChEMBL document CHEMBL1141974, “Inclusion complexes of N-sulfamoyloxazolidinones with beta-cyclodextrin” (Bioorg Med Chem Lett, 2005).

Legend:
[1] = Partition coefficient (logP); type: physicochemical; conditions: octanol/water
[2] = Partition coefficient (logP) (beta-cyclodextrin complex); type: physicochemical; conditions: octanol/water
[3] = Relative hydrophobicity enhancement value obtained via beta-cyclodextrin complexation; type: ADME

Question: Which results are given for `CN(c1ccccc1)S(=O)(=O)N1CCOC1=O`?
Answer: logP [1]: 0.56; logP [2]: -0.22; delta Log P [3]: 0.78

Question: With `O=C1OCCN1S(=O)(=O)Nc1ccccc1` as the compound, how does the logP [1] read?
Answer: 0.65

Question: What about the logP [2] of the same compound?
Answer: -0.2

Question: What about the “delta Log P” value [3] of the same compound?
Answer: 0.85

Question: With `Cc1ccc(NS(=O)(=O)N2CCOC2=O)cc1` as the compound, how does the logP [1] read?
Answer: 1.12

Question: And the logP [2]?
Answer: 0.1

Question: What about the “delta Log P” value [3] of the same compound?
Answer: 1.01

Question: For `COc1ccc(NS(=O)(=O)N2CCOC2=O)cc1`, which logP [1] is on record?
Answer: 0.77

Question: What about the logP [2] of the same compound?
Answer: -0.17

Question: And the “delta Log P” value [3]?
Answer: 0.94

Question: Which logP [1] does the source give for `O=C1OCCN1S(=O)(=O)Nc1ccc([N+](=O)[O-])cc1` here?
Answer: 0.55

Question: And the logP [2]?
Answer: -0.35

Question: What about the “delta Log P” value [3] of the same compound?
Answer: 0.9

Question: For `O=C1OCCN1S(=O)(=O)Nc1ccc(Cl)cc1`, which logP [1] is on record?
Answer: 1.26

Question: What about the logP [2] of the same compound?
Answer: 0.46

Question: And the “delta Log P” value [3]?
Answer: 0.8
